According to ChEMBL document CHEMBL2413072, “Synthesis and in vitro anticancer studies of novel C-2 arylidene congeners of lantadenes” (2013):

Legend:
Assay type in all cases: functional
U-251 = assay: Growth inhibition of human U251 cells assessed as growth inhibition at 10 uM by sulforhodamine B assay; conditions: read-out: GI
HT-29 = assay: Growth inhibition of human HT-29 cells assessed as growth inhibition at 10 uM by sulforhodamine B assay; conditions: read-out: GI
SK-MEL-2 = assay: Growth inhibition of human SK-MEL-2 cells assessed as growth inhibition at 10 uM by sulforhodamine B assay; conditions: read-out: GI
SR [1] = assay: Growth inhibition of human SR cells assessed as cell growth at 10 uM by sulforhodamine B assay; conditions: read-out: Activity
PC-3 [2] = assay: Growth inhibition of human PC3 cells assessed as cell growth at 10 uM by sulforhodamine B assay; conditions: read-out: Activity
MDA-MB-468 [3] = assay: Growth inhibition of human MDA-MB-468 cells assessed as growth inhibition at 10 uM by sulforhodamine B assay; conditions: read-out: GI
T47D = assay: Growth inhibition of human T47D cells assessed as growth inhibition at 10 uM by sulforhodamine B assay; conditions: read-out: GI
COLO 205 = assay: Growth inhibition of human COLO205 cells assessed as growth inhibition at 10 uM by sulforhodamine B assay; conditions: read-out: GI
SR [4] = assay: Growth inhibition of human SR cells assessed as growth inhibition at 10 uM by sulforhodamine B assay; conditions: read-out: GI
SNB-75 [5] = assay: Growth inhibition of human SNB75 cells assessed as cell growth at 10 uM by sulforhodamine B assay; conditions: read-out: Activity
OVCAR-4 [6] = assay: Growth inhibition of human OVCAR4 cells assessed as growth inhibition at 10 uM by sulforhodamine B assay; conditions: read-out: GI
SF-295 [7] = assay: Growth inhibition of human SF295 cells assessed as growth inhibition at 10 uM by sulforhodamine B assay; conditions: read-out: GI
LOX IMVI [8] = assay: Growth inhibition of human LOXIMVI cells assessed as cell growth at 10 uM by sulforhodamine B assay; conditions: read-out: Activity
SF-295 [9] = assay: Growth inhibition of human SF295 cells assessed as cell growth at 10 uM by sulforhodamine B assay; conditions: read-out: Activity
MDA-MB-468 [10] = assay: Growth inhibition of human MDA-MB-468 cells assessed as cell growth at 10 uM by sulforhodamine B assay; conditions: read-out: Activity
A549 [11] = assay: Growth inhibition of human A549/ATCC cells assessed as growth inhibition at 10 uM by sulforhodamine B assay; conditions: read-out: GI
[12] = Growth inhibition of human NCI-ADR-RES cells assessed as growth inhibition at 10 uM by sulforhodamine B assay; conditions: read-out: GI
A498 = assay: Growth inhibition of human A498 cells assessed as cell growth at 10 uM by sulforhodamine B assay; conditions: read-out: Activity
NCI-H460 = assay: Growth inhibition of human NCI-H460 cells assessed as cell growth at 10 uM by sulforhodamine B assay; conditions: read-out: Activity
OVCAR-8 = assay: Growth inhibition of human OVCAR8 cells assessed as growth inhibition at 10 uM by sulforhodamine B assay; conditions: read-out: GI
CCRF-CEM = assay: Growth inhibition of human CCRF-CEM cells assessed as cell growth at 10 uM by sulforhodamine B assay; conditions: read-out: Activity
[13] = Growth inhibition of human Hs 578T cells assessed as cell growth at 10 uM by sulforhodamine B assay; conditions: read-out: Activity
HCT-116 [14] = assay: Growth inhibition of human HCT116 cells assessed as cell growth at 10 uM by sulforhodamine B assay; conditions: read-out: Activity
OVCAR-5 = assay: Growth inhibition of human OVCAR5 cells assessed as growth inhibition at 10 uM by sulforhodamine B assay; conditions: read-out: GI
SNB-19 = assay: Growth inhibition of human SNB19 cells assessed as growth inhibition at 10 uM by sulforhodamine B assay; conditions: read-out: GI
HCT-116 [15] = assay: Growth inhibition of human HCT116 cells assessed as growth inhibition at 10 uM by sulforhodamine B assay; conditions: read-out: GI
A549 [16] = assay: Growth inhibition of human A549/ATCC cells assessed as cell growth at 10 uM by sulforhodamine B assay; conditions: read-out: Activity
SNB-75 [17] = assay: Growth inhibition of human SNB75 cells assessed as growth inhibition at 10 uM by sulforhodamine B assay; conditions: read-out: GI
HL-60(TB) = assay: Growth inhibition of human HL-60(TB) cells assessed as growth inhibition at 10 uM by sulforhodamine B assay; conditions: read-out: GI
LOX IMVI [18] = assay: Growth inhibition of human LOXIMVI cells assessed as growth inhibition at 10 uM by sulforhodamine B assay; conditions: read-out: GI
OVCAR-4 [19] = assay: Growth inhibition of human OVCAR4 cells assessed as cell growth at 10 uM by sulforhodamine B assay; conditions: read-out: Activity
NCI-H322M = assay: Growth inhibition of human NCI-H322M cells assessed as cell growth at 10 uM by sulforhodamine B assay; conditions: read-out: Activity
HCT-15 = assay: Growth inhibition of human HCT15 cells assessed as growth inhibition at 10 uM by sulforhodamine B assay; conditions: read-out: GI
RXF 393 [20] = assay: Growth inhibition of human RXF393 cells assessed as growth inhibition at 10 uM by sulforhodamine B assay; conditions: read-out: GI
SK-MEL-5 = assay: Growth inhibition of human SK-MEL-5 cells assessed as growth inhibition at 10 uM by sulforhodamine B assay; conditions: read-out: GI
786-0 = assay: Growth inhibition of human 786-0 cells assessed as cell growth at 10 uM by sulforhodamine B assay; conditions: read-out: Activity
CAKI-1 = assay: Growth inhibition of human CAKI-1 cells assessed as cell growth at 10 uM by sulforhodamine B assay; conditions: read-out: Activity
UO-31 = assay: Growth inhibition of human UO31 cells assessed as cell growth at 10 uM by sulforhodamine B assay; conditions: read-out: Activity
PC-3 [21] = assay: Growth inhibition of human PC3 cells assessed as growth inhibition at 10 uM by sulforhodamine B assay; conditions: read-out: GI
[22] = Growth inhibition of human Hs 578T cells assessed as growth inhibition at 10 uM by sulforhodamine B assay; conditions: read-out: GI
HOP-62 = assay: Growth inhibition of human HOP62 cells assessed as cell growth at 10 uM by sulforhodamine B assay; conditions: read-out: Activity
K562 = assay: Growth inhibition of human K562 cells assessed as growth inhibition at 10 uM by sulforhodamine B assay; conditions: read-out: GI
RXF 393 [23] = assay: Growth inhibition of human RXF393 cells assessed as cell growth at 10 uM by sulforhodamine B assay; conditions: read-out: Activity
UACC-257 = assay: Growth inhibition of human UACC257 cells assessed as cell growth at 10 uM by sulforhodamine B assay; conditions: read-out: Activity
MDA-MB-231 = assay: Growth inhibition of human MDA-MB-231 cells assessed as growth inhibition at 10 uM by sulforhodamine B assay; conditions: read-out: GI
DU-145 = assay: Growth inhibition of human DU145 cells assessed as cell growth at 10 uM by sulforhodamine B assay; conditions: read-out: Activity
ACHN = assay: Growth inhibition of human ACHN cells assessed as growth inhibition at 10 uM by sulforhodamine B assay; conditions: read-out: GI
BT-549 = assay: Growth inhibition of human BT549 cells assessed as growth inhibition at 10 uM by sulforhodamine B assay; conditions: read-out: GI
[24] = Growth inhibition of human HCC2998 cells assessed as growth inhibition at 10 uM by sulforhodamine B assay; conditions: HCC 2998, read-out: GI

CC1(C)C[C@@H](O)[C@]2(C(=O)O)CC[C@]3(C)C(=CC[C@@H]4[C@@]5(C)C/C(=C\C=C\c6ccccc6)C(=O)C(C)(C)[C@@H]5CC[C@]43C)[C@@H]2C1 gave an inhibition of growth at 10 µM (U-251) of 66.4%, an inhibition of growth at 10 µM (HT-29) of 48.3% and an inhibition of growth at 10 µM (SK-MEL-2) of 35.4%. It also gave a growth at 10 µM (SR [1]) of 62.6%, a growth at 10 µM (PC-3 [2]) of 41.5% and an inhibition of growth at 10 µM (MDA-MB-468 [3]) of 27.4%. The inhibition of growth at 10 µM (T47D) was 62.4%, the inhibition of growth at 10 µM (COLO 205) was under 10% and the inhibition of growth at 10 µM (SR [4]) was 37.4%. It also gave a growth at 10 µM (SNB-75 [5]) of 72.1%, an inhibition of growth at 10 µM (OVCAR-4 [6]) of 45.8% and an inhibition of growth at 10 µM (SF-295 [7]) of 76.5%. It also gave a growth at 10 µM (LOX IMVI [8]) of 61.4%, a growth at 10 µM (SF-295 [9]) of 23.5% and a growth at 10 µM (MDA-MB-468 [10]) of 72.6%. It also gave an inhibition of growth at 10 µM (A549 [11]) of 77.3%, an inhibition of growth at 10 µM [12] of 23.8% and a growth at 10 µM (A498) of 95.7%. It also gave a growth at 10 µM (NCI-H460) of 45.8%, an inhibition of growth at 10 µM (OVCAR-8) of 57% and a growth at 10 µM (CCRF-CEM) of 19.9%. It also gave a growth at 10 µM [13] of 58.4%, a growth at 10 µM (HCT-116 [14]) of 17.5% and an inhibition of growth at 10 µM (OVCAR-5) of under 10%. The inhibition of growth at 10 µM (SNB-19) was 26.6%, the inhibition of growth at 10 µM (HCT-116 [15]) was 82.5% and the growth at 10 µM (A549 [16]) was 22.7%. For the same molecule, the inhibition of growth at 10 µM (SNB-75 [17]) was 27.9%, the inhibition of growth at 10 µM (HL-60(TB)) was 61.2% and the inhibition of growth at 10 µM (LOX IMVI [18]) was 38.6%. It also gave a growth at 10 µM (OVCAR-4 [19]) of 54.2%, a growth at 10 µM (NCI-H322M) of 71.9% and an inhibition of growth at 10 µM (HCT-15) of 64.8%. For the same molecule, the inhibition of growth at 10 µM (RXF 393 [20]) was 15.9%, the inhibition of growth at 10 µM (SK-MEL-5) was 26.3% and the growth at 10 µM (786-0) was 78.1%. It also gave a growth at 10 µM (CAKI-1) of 43%, a growth at 10 µM (UO-31) of 40.3% and an inhibition of growth at 10 µM (PC-3 [21]) of 58.5%. The inhibition of growth at 10 µM [22] was 41.6%, the growth at 10 µM (HOP-62) was 62.8% and the inhibition of growth at 10 µM (K562) was 67.6%. For the same molecule, the growth at 10 µM (RXF 393 [23]) was 84.1%, the growth at 10 µM (UACC-257) was 62% and the inhibition of growth at 10 µM (MDA-MB-231) was 31.1%. It also gave a growth at 10 µM (DU-145) of 71.2%, an inhibition of growth at 10 µM (ACHN) of 58.1% and an inhibition of growth at 10 µM (BT-549) of 30%. For the same molecule, the inhibition of growth at 10 µM [24] was 17.2%.
